The results in this text go back to ChEMBL document CHEMBL1201862, “PubChem BioAssay data set” (2004).

Among the test systems are BT-549; NCI-H226; SF-268; CAKI-1; HCT-15; NCI/ADR-RES; PC-3; KM12; SK-MEL-5; 786-0; UO-31; OVCAR-4; OVCAR-3; HCC 2998; HOP-92; U-251; HL-60; NCI-H23; ACHN; NCI-H522.
Experiment in all cases: inhibition of tumour cell growth, NCI panel, 48 h

SMILES strings stand for the structures.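 Method: 48-hour compound exposure of cells in 96-well plates, five concentrations, linear interpolation of endpoints. GI50 is the concentration that inhibits growth by half.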 Activity calls are given as the source filed them. Rule as the data show it: active = GI50 up to about 1.1 µM and inactive = higher. A value given as a limit tells only on which side of the number the result lay.

For `O=[N+]([O-])c1ccc([I+]c2ccccc2)cc1`, the GI50 in the assay on BT-549 was 2.8 µM (inactive); with NCI-H226, 9.08 µM (inactive); with SF-268 it was 6.61 µM (inactive); in the assay with CAKI-1, 3.95 µM (inactive); in the assay on HCT-15, 7.35 µM; in the assay on NCI/ADR-RES it was 8.3 µM (inactive). The GI50 in the assay on PC-3 was 5.52 µM (inactive); in the assay with KM12, 5.04 µM (inactive); with SK-MEL-5 it was 8.04 µM (inactive); in the assay on 786-0, 4.26 µM (inactive); in the assay with UO-31, 6.03 µM (inactive); with OVCAR-4, 4.33 µM (inactive). For the same compound, the GI50 was 3.13 µM (inactive) in the assay with OVCAR-3; 7.28 µM (inactive) with HCC 2998; 9.79 µM (inactive) in the assay with HOP-92; 5.46 µM (inactive) with U-251; 5.4 µM (inactive) with HL-60; 2.33 µM (inactive) with NCI-H23. In addition, the figures for the GI50 with ACHN and in the assay on NCI-H522 were 6.43 µM (inactive) and 1.92 µM (inactive), respectively.
On to `COc1ccc(C[C@@H]2OC3(C=CC(=O)C=C3)O[C@H]2Cc2ccc(OC)cc2)cc1`, for which the GI50 was 0.221 µM (active) in the assay on BT-549; 0.232 µM (active) in the assay with NCI-H226; 0.771 µM (active) in the assay on SF-268; 0.354 µM (active) in the assay with CAKI-1; 0.255 µM in the assay with HCT-15; 0.822 µM (active) with NCI/ADR-RES. For the same compound, the GI50 in the assay with PC-3 was 1.33 µM (inactive); in the assay on KM12, 1.91 µM (inactive); in the assay with SK-MEL-5 it was 1.52 µM (inactive); with 786-0, 0.184 µM (active); with UO-31, 0.29 µM (active); with OVCAR-4, 0.957 µM (active). In addition, the GI50 was 0.673 µM (active) in the assay on OVCAR-3; 1.52 µM (inactive) with HCC 2998; 0.653 µM (active) in the assay with HOP-92; 1.28 µM (inactive) in the assay on U-251; 1.52 µM (inactive) with HL-60; 1.37 µM (inactive) in the assay on NCI-H23. Moreover, the GI50 with ACHN was 0.405 µM (active); in the assay on NCI-H522 it was 0.147 µM (active).
On to `CC(=O)N(C(=O)CC(=O)NNCc1ccccc1Cl)c1ccc(Cl)cc1`, for which the GI50 was > 10 µM (inactive) in the assay on BT-549; > 10 µM (inactive) in the assay on NCI-H226; > 10 µM (inactive) with SF-268; > 10 µM (inactive) in the assay on CAKI-1; more than 10 µM in the assay with HCT-15; > 10 µM (inactive) in the assay on NCI/ADR-RES. The GI50 with PC-3, with KM12, in the assay on SK-MEL-5, with 786-0, in the assay on UO-31 and in the assay on OVCAR-4 was > 10 µM (inactive) each time. The GI50 in the assay with OVCAR-3, with HCC 2998, in the assay with HOP-92, with U-251, in the assay on HL-60 and with NCI-H23 was > 10 µM (inactive) in each case. For the same compound, the GI50 in the assay on ACHN and in the assay with NCI-H522 was > 10 µM (inactive) in each case.
Consider `CN(C)CCC(=O)N1C/C(=C\c2ccc(Cl)c(Cl)c2)C(=O)/C(=C/c2ccc(Cl)c(Cl)c2)C1`, for which the GI50 is 0.426 µM (active) in the assay on BT-549; 0.705 µM (active) in the assay with NCI-H226; 0.309 µM (active) in the assay on SF-268; 0.394 µM (active) with CAKI-1; 0.184 µM in the assay on HCT-15; 0.147 µM (active) in the assay on NCI/ADR-RES. Also, the GI50 was 0.102 µM (active) in the assay with PC-3; 0.279 µM (active) with KM12; 0.453 µM (active) with SK-MEL-5; 0.125 µM (active) with 786-0; 0.336 µM (active) in the assay with UO-31; 0.245 µM (active) in the assay on OVCAR-4. Also, the GI50 in the assay with OVCAR-3 was 0.448 µM (active); in the assay on HCC 2998, 0.321 µM (active); in the assay with HOP-92, 0.394 µM (active); in the assay on U-251, 0.149 µM (active); in the assay with HL-60, 0.0435 µM (active); in the assay on NCI-H23 it was 0.504 µM (active). Moreover, the GI50 was 0.329 µM (active) in the assay on ACHN and 0.2 µM (active) in the assay on NCI-H522.
With `Cc1nc2c(nc1C)C(=O)c1ccccc1C2=O`, the GI50 in the assay with BT-549 was 1.35 µM (inactive); in the assay with NCI-H226, 4.9 µM (inactive); in the assay with SF-268, 10.2 µM (inactive); in the assay on CAKI-1 it was 24.4 µM (inactive); in the assay on HCT-15 it was 2.58 µM; with NCI/ADR-RES it was 2.87 µM (inactive). Further, the GI50 is 3.24 µM (inactive) in the assay with PC-3; 5.69 µM (inactive) in the assay with KM12; 0.188 µM (active) with SK-MEL-5; 8.38 µM (inactive) with 786-0; 11.7 µM (inactive) with UO-31; 5.36 µM (inactive) in the assay with OVCAR-4. Besides, the GI50 was 2.68 µM (inactive) in the assay on OVCAR-3; 6.58 µM (inactive) in the assay with HCC 2998; 18.1 µM (inactive) in the assay with HOP-92; 6.55 µM (inactive) in the assay with U-251; 3.98 µM (inactive) in the assay with HL-60; 0.5 µM (active) in the assay with NCI-H23. The GI50 with ACHN is 10.4 µM (inactive); with NCI-H522, 3.54 µM (inactive).
As for `O=C(C[n+]1ccccc1)N/N=C(\Cc1nc2ccc([N+](=O)[O-])cc2nc1O)C(=O)Nc1cc(Cl)c(Cl)cc1Cl`, the GI50 in the assay on BT-549 is > 100 µM (inactive); in the assay on NCI-H226 it was 50.5 µM (inactive); in the assay with SF-268, > 100 µM (inactive); in the assay on CAKI-1, 65.6 µM (inactive); in the assay on HCT-15 it was more than 100 µM; with NCI/ADR-RES it was 60.1 µM (inactive). Also, the GI50 in the assay with PC-3 was > 100 µM (inactive); in the assay with KM12 it was 60.3 µM (inactive); in the assay with SK-MEL-5, 95.1 µM (inactive); with 786-0, > 100 µM (inactive); with UO-31, 50.4 µM (inactive); in the assay on OVCAR-4, 79.4 µM (inactive). For the same compound, the GI50 in the assay with OVCAR-3 is 76 µM (inactive); in the assay on HCC 2998, 59 µM (inactive); in the assay with HOP-92, > 100 µM (inactive); with U-251 it was > 100 µM (inactive); in the assay on HL-60, > 100 µM (inactive); with NCI-H23 it was > 100 µM (inactive). Also, the GI50 was > 100 µM (inactive) in the assay on ACHN and 61.8 µM (inactive) in the assay on NCI-H522.
Consider `N#CN1C2CCC1CC(=O)C2`, for which the GI50 in the assay with BT-549 is > 100 µM (inactive); in the assay with NCI-H226, > 10 µM (inactive); with SF-268 it was > 100 µM (inactive); in the assay with CAKI-1, > 100 µM (inactive); in the assay on HCT-15, more than 100 µM; in the assay with NCI/ADR-RES, > 100 µM (inactive). Moreover, the GI50 in the assay with PC-3, in the assay with KM12, with SK-MEL-5, in the assay on 786-0, in the assay on UO-31 and in the assay with OVCAR-4 was > 100 µM (inactive) throughout. Also, the GI50 in the assay with OVCAR-3, in the assay on HCC 2998, in the assay on HOP-92, in the assay with U-251, in the assay on HL-60 and with NCI-H23 was > 100 µM (inactive) each time. Also, the GI50 with ACHN and in the assay with NCI-H522 was > 100 µM (inactive) each time.
For `CCOC(=O)CC(=O)Nc1c(C(=O)OCC)sc2nc(SC)nc(Nc3ccc(OC)c(OC)c3)c12`, the GI50 with BT-549 was 27.5 µM (inactive); in the assay with NCI-H226, 75.2 µM (inactive); in the assay with SF-268, 3.19 µM (inactive); with CAKI-1, 64 µM (inactive); in the assay with HCT-15 it was 39.9 µM; with NCI/ADR-RES, 8.77 µM (inactive). For the same compound, the GI50 with PC-3 was > 100 µM (inactive); with KM12 it was 80.5 µM (inactive); with SK-MEL-5, > 100 µM (inactive); in the assay on 786-0 it was 6.22 µM (inactive); in the assay on UO-31, > 100 µM (inactive); in the assay with OVCAR-4, 66.2 µM (inactive). Further, the GI50 in the assay with OVCAR-3 was 10.7 µM (inactive); in the assay on HCC 2998 it was > 100 µM (inactive); with HOP-92, 9.25 µM (inactive); with U-251 it was 6.4 µM (inactive); with HL-60, > 100 µM (inactive); in the assay on NCI-H23, 19.1 µM (inactive). In addition, the GI50 was 19.8 µM (inactive) in the assay with ACHN and 13.6 µM (inactive) in the assay with NCI-H522.
Turning to `CC(=O)OC(C)(C)/C=C/C(=O)[C@](C)(O)[C@H]1[C@H](O)C[C@@]2(C)[C@@H]3CC=C4[C@@H](C[C@H](O)C(=O)C4(C)C)[C@]3(C)C(=O)C[C@]12C`, the GI50 with BT-549 was < 0.01 µM (active); in the assay on NCI-H226, < 0.01 µM (active); in the assay with SF-268, < 0.01 µM (active); in the assay with CAKI-1 it was < 0.01 µM (active); in the assay on HCT-15, less than 0.01 µM; in the assay with NCI/ADR-RES it was 0.0112 µM (active). Also, the GI50 with PC-3 is < 0.01 µM (active); in the assay on KM12 it was 1.4 µM (inactive); in the assay on SK-MEL-5, < 0.01 µM (active); in the assay on 786-0, < 0.01 µM (active); in the assay with UO-31 it was < 0.01 µM (active); in the assay on OVCAR-4, < 0.01 µM (active). For the same compound, the GI50 was < 0.01 µM (active) with OVCAR-3; < 0.01 µM (active) with HCC 2998; 0.0175 µM (active) in the assay with HOP-92; < 0.01 µM (active) in the assay with U-251; < 0.01 µM (active) in the assay on HL-60; 0.0873 µM (active) in the assay with NCI-H23. The GI50 with ACHN and with NCI-H522 was < 0.01 µM (active) throughout.
Take `Cc1cn([C@@H]2C[C@H](CO)[C@@H]2O)c(=O)[nH]c1=O`: the GI50 in the assay on BT-549 was > 100 µM (inactive); in the assay with NCI-H226 it was > 100 µM (inactive); in the assay on SF-268 it was > 100 µM (inactive); in the assay with CAKI-1 it was > 100 µM (inactive); in the assay with HCT-15, more than 100 µM; in the assay on NCI/ADR-RES it was > 100 µM (inactive). The GI50 in the assay on PC-3, in the assay on KM12, in the assay on SK-MEL-5, in the assay on 786-0, with UO-31 and in the assay with OVCAR-4 was > 100 µM (inactive) each time. Moreover, the GI50 with OVCAR-3, in the assay on HCC 2998, with HOP-92, in the assay on U-251, in the assay on HL-60 and with NCI-H23 was > 100 µM (inactive) each time. In addition, the GI50 in the assay with ACHN and in the assay on NCI-H522 was > 100 µM (inactive) in each case.
